Results published in patent US20080039328A1, “Post Harvest Control of Genetically Modified Crop Growth Employing D-Amino Acid Compounds” (BASF PLANT SCIENCE GMBH, priority 2004, published 2008).
Entries after “also recorded” stand apart in the source; their conditions may differ.

Legend:
DAAO transgenic plants = experiment: Germination of DAAO transgenic plants on D-Asn; type: in vivo; settings: 30 mM
Source text: The D-amino acid oxidase of the invention may be expressed in the cytosol, peroxisome, or other intracellular compartment of the plant cell. Compartmentalisation of the D-amino acid metabolising polypeptide may be achieved by fusing the nucleic acid sequence encoding the DAAO polypeptide to a sequence encoding a transit peptide to generate a fusion protein. Gene products expressed without such transit peptides generally accumulate in the cytosol. The localization of expressed DAAO in the peroxisome produces H2O2 that can be metabolised by the H2O2 degrading enzyme catalase. Higher levels of D-amino acids may therefore be required to produce damaging levels of H2O2. Expression of DAAO in the cytosol, where levels of catalase activity are lower, reduces the amount of D-amino acid required to produce damaging levels H2O2. Expression of DAAO in the cytosol may be achieved by removing peroxisome targeting signals or transit peptides from the encoding nucleic acid sequence. For example, the dao1 gene (EC: 1.4.3.3: GenBank Acc.-No.: U60066) from the yeast Rhodotorula gracilis (Rhodosporidium toruloides) was cloned as described (WO 03/060133). The last nine nucleotides encode the signal peptide SKL, which guides the protein to the peroxisome sub-cellular organelle.

A. thaliana = experiment: Growth and toxicity tests on A. thaliana (genotype not stated); type: in vivo; settings: for Effect on growth of A. thaliana: in vivo
Source text: (§1) Presumably endogenous transaminase may be specific for the L-enantiomer, so the corresponding D-enantiomer is not metabolized in wildtype plants, but only in plants expressing DAAO. […] The toxicity of some D-amino acids on organisms is not well understood, and has only occasionally been studied in plants (Gamburg K Z & Rekoslavskaya N I (1991) Fiziologiya Rastenii 38, 1236-1246). Apart from A. thaliana, we have also tested the susceptibility of other plant species to D-serine, including poplar, tobacco, barley, maize, tomato and spruce. We found all tested species susceptible to D-serine at concentrations similar to those shown to be toxic for A. thaliana. A proposed mechanism for D-serine toxicity in bacteria is competitive inhibition of […] coupling to pantoic acid, thus inhibiting formation of pantothenic acid (Cosloy S D & McFall E (1973) J. Bacteriol. 114, 685-694). […] A second putative cause of D-amino acid toxicity is through competitive binding to tRNA. […] Genes similar to that encoding bacterial deacylase have also been identified. in A. thaliana (Soutourina J et al. (1996) J. Biol. Chem. 274, 19109-19114), corroborating the possibility that the mode of toxic action of D-amino acids might be through competitive binding to tRNA.

[1] = system: T1 seeds of transgenic Arabidopsis plants; experiment: Selection of T1 seeds on selective media; type: in vivo; settings: for Number of surviving seedlings: 2,074, 1,914 and 1,810 T1 seeds sown on D-alanine (3 mM), D-serine (3 mM) and kanamycin (50 μg/ml) plates, 5 d after germination; for Transformation frequencies found on the selective media: kanamycin 50 μg/ml, D-alanine 3 mM, D-serine 3 mM
Method: (§2) T1 seeds of transgenic Arabidopsis plants were surface-sterilized and sown in Petri plates that were sealed with gas-permeable tape. The growth medium was half strength MS19 with 0.5% (wt/vol) sucrose and 0.8% (wt/vol) agar, plus 3 mM D-alanine, 3 mM D-serine or 50 μg/ml kanamycin as the selective agent. Plants were grown for 5 d after germination with a 16 h photoperiod at 24° C. To evaluate the selection efficiency on different substrates, 2,074, 1,914 and 1,810 T1 seeds were sown on D-alanine-, D-serine- and kanamycin-selective plates, respectively, and the number of surviving seedlings was counted (44, 32 and 43, respectively).
(§3) The T-DNA contained both 35S:dao1 and pNos:nptII, allowing D-amino acid and kanamycin selection to be compared in the same lot of seeds.

[2] = system: wild-type Arabidopsis thaliana; experiment: Growth of wild-type A. thaliana plantlets on medium with D-amino acids; type: in vivo; settings: for Effect on plant growth (FIG. 3): 3 mM in half-concentrated Murashige-Skoog medium, wild type plantlets; for Growth of wild-type plants on selection media: immediately after the cotyledons had emerged; for Growth of wild-type plants (FIG. 4): various concentrations in half-strength MS, 10 d after germination
Method: Wild type Arabidopsis thaliana plantlets were grown on half-concentrated Murashige-Skoog medium (0.5% (wt/vol) sucrose, 0.8% (wt/vol) agar) supplemented with the indicated D-amino acid at either 3 mM (Panel A) or 30 mM (Panel B).
(§4) FIG. 4 D-amino acid dose responses of dao1 transgenic and wild-type A. thaliana. (a-d) Growth of dao1 transgenic line 3:7 (white), 10:7 (light gray), 13:4 (gray) and wild-type (black) plants, in fresh weight per plant, on media containing various concentrations of D-serine, D-alanine, D-isoleucine and D-valine in half-strength MS with 0.5% (wt/vol) sucrose and 0.8% (wt/vol) agar. Different concentration ranges were used for different ID-amino acids. The plants were grown for 10 d after germination under 16 h photoperiods at 24° C.; n=10±s.e.m., except for plants grown on D-isoleucine, where smaller Petri dishes were used, (n=6±s.e.m.).
as §2

[3] = system: dao1 transgenic A. thaliana; experiment: Growth of dao1 (DAAO) transgenic A. thaliana on medium with D-amino acids; type: in vivo, Arabidopsis thaliana; settings: for Effect on the transgenic plants: concentration of 30 mM; for Development of transgenic plants under selection conditions: in vivo
Method: as §4, §2, §3
Therefore, plants containing the construct were tested as described above on two sets of media, one containing D-isoleucine and the other containing D-valine at various concentrations, to assess whether DAAO could also be used as a counter-selection marker. Unambiguous counter-selection selection was achieved when seeds were sown on either D-isoleucine or D-valine at concentrations greater than 10 mM (FIG. 4 c,d).

wild-type seedlings = experiment: Sprayed (foliar) application on wild-type seedlings; type: in vivo, A. thaliana; settings: one-week-old seedlings, sprayed on three consecutive days, 50 mM
Source text: (§5) Selection of seedlings on media containing D-alanine or D-serine was very rapid compared to selection on kanamycin. […] Therefore, transformants could be distinguished from non-transformed plants directly after germination. The difference between wild-type and transgenic plants after D-amino acid selection was unambiguous, with no intermediate phenotypes. In contrast, intermediate phenotypes are common when kanamycin resistance is used as a selection marker. […] Transgenic seedlings were resistant to foliar application of D-alanine or D-serine, so selection on soil was possible.

Transgenic seedlings = experiment: Foliar application on transgenic seedlings; set-up: species or system A. thaliana; settings: in vivo
Source text: as §5

barley = experiment: Susceptibility of other plant species to D-serine; type: in vivo; settings: concentrations similar to those toxic for A. thaliana
Source text: as §1

maize = experiment: Susceptibility of other plant species to D-serine; type: in vivo; settings: concentrations similar to those toxic for A. thaliana
Source text: as §1

poplar = experiment: Susceptibility of other plant species to D-serine; type: in vivo; settings: concentrations similar to those toxic for A. thaliana
Source text: as §1

spruce = experiment: Susceptibility of other plant species to D-serine; type: in vivo; settings: concentrations similar to those toxic for A. thaliana
Source text: as §1

tobacco = experiment: Susceptibility of other plant species to D-serine; type: in vivo; settings: concentrations similar to those toxic for A. thaliana
Source text: as §1

tomato = experiment: Susceptibility of other plant species to D-serine; type: in vivo; settings: concentrations similar to those toxic for A. thaliana
Source text: as §1

DAAO = target: T1, DAAO (Rhodotorula toruloides, UniProt P80324); experiment: DAAO incubation of cell-free plant extracts, keto acid production by HPLC; type: biochemical, Rhodotorula gracilis; settings: cell-free extracts from dao1 transgenic line 10:7
T1 construct: expressed in transfected cells; host or cells: Arabidopsis thaliana (Col-0), dao1 transgenic line 10:7, transformed with pPCV702:dao1 (CaMV 35S); crude soluble protein extract
T1 sequence (P80324 25-368): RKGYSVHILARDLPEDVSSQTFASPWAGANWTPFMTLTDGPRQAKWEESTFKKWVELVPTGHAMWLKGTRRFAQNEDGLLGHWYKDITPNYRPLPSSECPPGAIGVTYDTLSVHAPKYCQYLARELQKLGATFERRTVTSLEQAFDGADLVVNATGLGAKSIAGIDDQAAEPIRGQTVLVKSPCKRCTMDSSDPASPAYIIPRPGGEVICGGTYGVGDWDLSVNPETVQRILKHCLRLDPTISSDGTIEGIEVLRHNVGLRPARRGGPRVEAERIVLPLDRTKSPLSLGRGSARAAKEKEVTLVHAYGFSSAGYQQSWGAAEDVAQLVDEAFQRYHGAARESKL
Method: Soluble proteins were extracted by shaking 0.1 g samples of plant material that had been finely pulverized in a 1.5 ml Eppendorf tube in 1 ml of 0.1 M potassium phosphate buffer, pH 8. DAAO activity was then assayed as follows. Reaction mixtures were prepared containing 2,120 μl of 0.1 M potassium phosphate buffer, pH 8, 80 μl of crude protein extract and 100 μl of 0.3 M D-alanine. The samples were incubated for 2 h at 30° C. The enzyme activity was then assessed, by measuring the increase in absorbance at 220 nm (E=1.090 M^−1 cm^−1) associated with the conversion of D-alanine to pyruvate, after transferring the test tubes to boiling water for […] to stop the reaction. In control reactions, D-alanine was added immediately before boiling. One unit of DAAO activity is defined as the turnover of one micromole of substrate per minute, and activity was expressed per gram plant biomass (fresh weight). The breakdown of D-isoleucine and D-valine in DAAO incubations, and the associated production of 3-methyl-2-oxopentanoate and 3-methyl-2-oxobutanoate, were analyzed by high-performance liquid chromatography. In other respects the reactions were carried out as described above.
Presumably endogenous transaminase may be specific for the L-enantiomer, so the corresponding D-enantiomer is not metabolized in wildtype plants, but only in plants expressing DAAO. […]

NC(=O)C[C@@H](N)C(=O)O [D-Asn, D-asparagine]
Inhibition of germination of DAAO transgenic plants (cytosolic and peroxisomal constructs) (DAAO transgenic plants): inhibited significantly more than the wild-type

CCC(C)C(=O)C(=O)O (stereo not drawn) [3-methyl-2-oxopentanoate]
Effect on growth of A. thaliana (A. thaliana): impaired growth

NC[C@H]1O[C@H](O[C@H]2[C@H](O)[C@@H](O[C@H]3O[C@H](CO)[C@@H](O)[C@H](N)[C@H]3O)[C@H](N)C[C@@H]2N)[C@H](O)[C@@H](O)[C@@H]1O [kanamycin]
Number of surviving seedlings [1]: 43
Transformation frequencies found on the selective media [1]: 2.37%

CC(C)C(=O)C(=O)O [3-methyl-2-oxobutanoate, 3-methyl-2-oxobutanoate]
Effect on growth of A. thaliana (A. thaliana): impaired growth

CC[C@H](C)[C@H](N)C(=O)O [L-isoleucine]
Effects on wildtype plants ([2]; in vivo): negative effects

N[C@H](CO)C(=O)O [D-serine]
Effect on plant growth (FIG. 3) [2]: severe phytotoxic effects
Growth of wild-type plants on selection media [2]: inhibited growth
Growth of wild-type plants (FIG. 4) [2]: inhibited even at quite low concentrations
Effect on growth of the transgenic plants ([3]; 3 mM): slightly inhibited the growth
Effect on the transgenic plants [3]: significant growth inhibition
Development of transgenic plants under selection conditions [3]: developed normally
Number of surviving seedlings [1]: 32
Concentration at which efficient selection was achieved (FIG. 4a) ([1]; in vivo): lower than 1 mM
Transformation frequencies found on the selective media [1]: 1.67%
Effect of sprayed application on wild-type seedlings (wild-type seedlings): effectively killed
Response of transgenic seedlings to foliar application (Transgenic seedlings): resistant
Mitigation of toxicity in A. thaliana by pantothenic acid or a-alanine (A. thaliana; pantothenic acid or a-alanine provided): could not be mitigated
Susceptibility of barley (barley): susceptible
Susceptibility of maize (maize): susceptible
Susceptibility of poplar (poplar): susceptible
Susceptibility of spruce (spruce): susceptible
Susceptibility of tobacco (tobacco): susceptible
Susceptibility of tomato (tomato): susceptible

CC(C)[C@@H](N)C(=O)O [D-valine]
Effect on wild-type plants at higher concentrations (FIG. 4d) ([2]; higher concentrations): moderately negative effect
Growth of wild-type plants (FIG. 4) [2]: not toxic; also recorded: minor effects; also recorded: not the wild-type plants
Growth of plants expressing DAAO (FIG. 4) ([3]; various concentrations in half-strength MS, 10 d after germination): strong negative influence on the growth; also recorded: inhibit growth
Increase in production of 3-methyl-2-oxobutanoate compared to extracts of wild-type plants (DAAO): 7 fold

C[C@@H](N)C(=O)O [D-alanine]
Effect on plant growth (FIG. 3) [2]: severe phytotoxic effects
Growth of wild-type plants on selection media [2]: inhibited growth
Effect on wild-type plantlets (FIG. 2) ([2]; treated with 30 mM): toxic effect
Growth of wild-type plants (FIG. 4) [2]: inhibited even at quite low concentrations
Effect on the transgenic plants [3]: no negative effect
Development of transgenic plants under selection conditions [3]: developed normally
Effect on transgenic plantlets comprising DAAO gene (FIG. 2) ([3]; treated with 30 mM): no severe damage
Number of surviving seedlings [1]: 44
Transformation frequencies found on the selective media [1]: 2.12%
Effect of sprayed application on wild-type seedlings (wild-type seedlings): effectively killed
Response of transgenic seedlings to foliar application (Transgenic seedlings): resistant
